What is called EC50 is the concentration that produces a half-maximal response.

T1 sequence (P32245 whole entry, species assumed): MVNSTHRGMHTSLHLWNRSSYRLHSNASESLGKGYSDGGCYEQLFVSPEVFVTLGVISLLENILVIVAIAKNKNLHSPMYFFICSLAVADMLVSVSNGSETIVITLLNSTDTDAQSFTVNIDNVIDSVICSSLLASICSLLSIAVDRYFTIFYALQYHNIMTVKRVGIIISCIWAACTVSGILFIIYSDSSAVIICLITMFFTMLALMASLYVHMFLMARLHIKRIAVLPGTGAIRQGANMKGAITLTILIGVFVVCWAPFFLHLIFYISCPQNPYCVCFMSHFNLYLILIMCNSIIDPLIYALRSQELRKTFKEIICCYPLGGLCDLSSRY

This experiment addresses T1, MC4R (Homo sapiens, UniProt P32245).
T1 construct: expressed in transfected cells; host or cells: HEK (Human Embryonic Kidney) permanent expression cell line HEK MC4R-Luc, co-expressing CRE-luciferase
In words: MCR agonistic activity (luciferase assay / cAMP accumulation assay) on MC4R. The format is cell-based. As to conditions: HEK cell lines expressing MC4R; method A (CRE-luciferase) or B (cAMP accumulation), not said which; read-out: EC50 value, agonistic activity to MC4R (range per group of Examples). Summed up:
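HEK cells stably expressing MC4R with a CRE-luciferase reporter treated 5 hours at 37 °C with serially diluted agonist (≤1% DMSO); luminescence expressed relative to 10 nM NDP-MSH, EC50 at half-maximal signal. Alternatively, cAMP measured after 30 minutes with compound plus 500 μM IBMX by [3H]-cAMP competition binding.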
On the technique in general: Cyclic AMP is a second messenger, typically raised through Gs and lowered through Gi signalling.
Turning to `CN1CCN(C(=O)[C@@H]2C[C@H](N(C(=O)[C@@H]3CCCO3)C3CCC(C)(C)CC3)CN2C(=O)[C@@H]2CN(c3ccccn3)C[C@H]2c2ccc(Cl)cc2)CC1` [Example 65, (2S)-N-{(3S,5S)-1-{[(3S,4R)-4-(4-chlorophenyl)-1-pyridine-2-ylpyrrolidin-3-yl]carbonyl}-5-[(4-methylpiperazin-1-yl)carbonyl]pyrrolidin-3-yl}-N-(4,4-dimethylcyclohexyl)tetrahydrofuran-2-carboxamide], the EC50 lay within 0.1 to 10 nM.

In the case of `CC1CCC(N(C(=O)C2CCCO2)C2CC(C(=O)N3CCN(C)CC3)N(C(=O)C3CN(c4cccnn4)CC3c3ccc(F)cc3F)C2)CC1` (centres unmarked) [Example 66], the EC50 lay in the range of 0.1 to 10 nM.

In the case of `CN1CCN(C(=O)[C@@H]2C[C@H](N(C(=O)C(C)(C)C)C3CCC(C)(C)CC3)CN2C(=O)[C@@H]2CN(c3ncccn3)C[C@H]2c2ccc(Cl)cc2)CC1` [Example 67, N-{(3S,5S)-1-{[(3S,4R)-4-(4-chlorophenyl)-1-pyrimidine-2-ylpyrrolidin-3-yl]carbonyl}-5-[(4-methylpiperazin-1-yl)carbonyl]pyrrolidin-3-yl}-N-(4,4-dimethylcyclohexyl)-2,2-dimethylpropanamide], the 50% effective concentration (EC50) lay within 1000 to 10000 nM.

On to `CN1CCN(C(=O)[C@@H]2C[C@H](N(C(=O)[C@@H]3CCCO3)[C@H]3CC[C@@H](C)CC3)CN2C(=O)[C@@H]2CN(c3ccccn3)C[C@H]2c2ccc(F)cc2F)CC1` [Example 68, (2S)-N-{(3S,5S)-1-{[(3S,4R)-4-(2,4-difluorophenyl)-1-pyridine-2-ylpyrrolidin-3-yl]carbonyl}-5-[(4-methylpiperazin-1-yl)carbonyl]pyrrolidin-3-yl}-N-(cis-4-methylcyclohexyl)tetrahydrofuran-2-carboxamide], for which the EC50 was 0.1 to 10 nM.

With `CN1CCN(C(=O)[C@@H]2C[C@H](N(C(=O)[C@@H]3CCCO3)[C@H]3CC[C@@H](C)CC3)CN2C(=O)[C@@H]2CN(c3ccc(C#N)cn3)C[C@H]2c2ccc(Cl)cc2)CC1` [Example 69, (2S)-N-{(3S,5S)-1-{[(3S,4R)-4-(4-chlorophenyl)-1-(5-cyanopyridine-2-yl)pyrrolidin-3-yl]carbonyl}-5-[(4-methylpiperazin-1-yl)carbonyl]pyrrolidin-3-yl}-N-(cis-4-methylcyclohexyl)tetrahydrofuran-2-carboxamide], the EC50 was 0.1 to 10 nM.

In the case of `CN1CCN(C(=O)[C@@H]2C[C@H](N(C(=O)C(C)(C)C)C3CCC(C)(C)CC3)CN2C(=O)[C@@H]2CN(c3nccs3)C[C@H]2c2ccc(Cl)cc2)CC1` [Example 70, N-{(3S,5S)-1-{[(3S,4R)-4-(4-chlorophenyl)-1-(1,3-thiazole-2-yl)pyrrolidin-3-yl]carbonyl}-5-[(4-methylpiperazin-1-yl)carbonyl]pyrrolidin-3-yl}-N-(4,4-dimethylcyclohexyl)-2,2-dimethylpropanamide], the EC50 was 100 to 1000 nM.

`Cc1ccccc1N1C[C@@H](C(=O)N2C[C@@H](N(C(=O)[C@@H]3CCCO3)[C@H]3CC[C@@H](C)CC3)C[C@H]2C(=O)N2CCN(C)CC2)[C@H](c2ccc(Cl)cc2)C1` [Example 71, (2S)-N-{(3S,5S)-1-{[(3S,4R)-4-(4-chlorophenyl)-1-(2-methylphenyl)pyrrolidin-3-yl]carbonyl}-5-[(4-methylpiperazin-1-yl)carbonyl]pyrrolidin-3-yl}-N-(cis-4-methylcyclohexyl)tetrahydrofuran-2-carboxamide]: the EC50 lay within 1000 to 10000 nM.

For the molecule `CN1CCN(C(=O)[C@@H]2C[C@H](N(C(=O)[C@@H]3CCCO3)[C@H]3CC[C@@H](C)CC3)CN2C(=O)[C@@H]2CN(c3ccc(=O)n(C)n3)C[C@H]2c2ccc(Cl)cc2)CC1` [Example 72, (2S)-N-{(3S,5S)-1-{[(3S,4R)-4-(4-chlorophenyl)-1-(1-methyl-6-oxo-1,6-dihydropyridazine-3-yl)pyrrolidin-3-yl]carbonyl}-5-[(4-methylpiperazin-1-yl)carbonyl]pyrrolidin-3-yl}-N-(cis-4-methylcyclohexyl)tetrahydrofuran-2-carboxamide], the EC50 was in the range of 0.1 to 10 nM.

Consider `CN1CCN(C(=O)[C@@H]2C[C@H](N(C(=O)[C@@H]3CCCO3)[C@H]3CC[C@@H](C)CC3)CN2C(=O)[C@@H]2CN(c3ccc(=O)[nH]n3)C[C@H]2c2ccc(Cl)cc2)CC1` [Example 73, (2S)-N-{(3S,5S)-1-{[(3S,4R)-4-(4-chlorophenyl)-1-(6-oxo-1,6-dihydropyridazine-3-yl)pyrrolidin-3-yl]carbonyl]-5-[(4-methylpiperazin-1-yl)carbonyl]pyrrolidin-3-yl}-N-(cis-4-methylcyclohexyl)tetrahydrofuran-2-carboxamide], for which the EC50 is 0.1 to 10 nM.

As to `CN1CCN(C(=O)[C@@H]2C[C@H](N(C(=O)[C@@H]3CCCO3)[C@H]3CC[C@@H](C)CC3)CN2C(=O)[C@H]2CN(C(C)(C)C)C[C@H]2c2ccc(Cl)cc2)CC1` [Example 74, (2S)-N-{(3S,5S)-1-{[(3R,4R)-1-tert-butyl-4-(4-chlorophenyl)pyrrolidin-3-yl]carbonyl}-5-[(4-methylpiperazin-1-yl)carbonyl]pyrrolidin-3-yl}-N-(cis-4-methylcyclohexyl)tetrahydrofuran-2-carboxamide], the EC50 fell in the range of 10 to 100 nM.

For the molecule `CN1CCN(C(=O)[C@@H]2C[C@H](N(C(=O)[C@@H]3CCCO3)[C@H]3CC[C@@H](C)CC3)CN2C(=O)[C@@H]2CN(C(C)(C)C)C[C@@H]2c2ccc(Cl)cc2)CC1` [Example 75, (2S)-N-{(3S,5S)-1-{[(3S,4S)-1-tert-butyl-4-(4-chlorophenyl)pyrrolidin-3-yl]carbonyl}-5-[(4-methylpiperazin-1-yl)carbonyl]pyrrolidin-3-yl}-N-(cis-4-methylcyclohexyl)tetrahydrofuran-2-carboxamide], the EC50 fell in the range of 1000 to 10000 nM.

Turning to `CN1CCN(C(=O)[C@@H]2C[C@@H](N(C(=O)[C@@H]3CCCO3)[C@H]3CC[C@@H](C)CC3)CN2C(=O)[C@@H]2CN(C(C)(C)C)C[C@H]2c2ccc(Cl)cc2)CC1` [Example 76, (2S)-N-{(3R,5S)-1-{[(3S,4R)-1-tert-butyl-4-(4-chlorophenyl)pyrrolidin-3-yl]carbonyl}-5-[(4-methylpiperazin-1-yl)carbonyl]pyrrolidin-3-yl}-N-(cis-4-methylcyclohexyl)tetrahydrofuran-2-carboxamide], the half-maximal effective concentration (EC50) fell in the range of 100 to 1000 nM.

For the molecule `CN1CCN(C(=O)[C@@H]2C[C@H](N(C(=O)[C@@H]3CCCO3)c3ccc(F)cc3F)CN2C(=O)[C@@H]2CN(C(C)(C)C)C[C@H]2c2ccc(Cl)cc2)CC1` [Example 77, (2S)-N-{(3S,5S)-1-{[(3S,4R)-1-tert-butyl-4-(4-chlorophenyl)pyrrolidin-3-yl]carbonyl}-5-[(4-methylpiperazin-1-yl)carbonyl]pyrrolidin-3-yl}-N-(2,4-difluorophenyl)tetrahydrofuran-2-carboxamide], the EC50 was in the range of 10 to 100 nM.

With `CC(C)C(=O)N(c1ccc(F)cc1F)[C@H]1C[C@@H](C(=O)N2CCNCC2)N(C(=O)[C@@H]2CN(C(C)(C)C)C[C@H]2c2ccc(Cl)cc2)C1` [Example 78, N-[(3S,5S)-1-{[(3S,4R)-1-tert-butyl-4-(4-chlorophenyl)pyrrolidin-3-yl]carbonyl}-5-(piperazin-1-ylcarbonyl)pyrrolidin-3-yl]-N-(2,4-difluorophenyl)-2-methylpropanamide], the EC50 lay in the range of 0.1 to 10 nM.

The values above are taken from patent US8183243B2, “Melanocortin receptor agonists” (LG Life Sciences Ltd., priority 2008, dated 2012).
